Laboratory results taken from article PMC9268560, “Design, Synthesis, In Silico and In Vitro Studies of New Immunomodulatory Anticancer Nicotinamide Derivatives Targeting VEGFR-2” (Molecules, 2022).
Where two headings read alike, the source gives them in different places.

Legend:
[1] = In vitro viability test (MTT) on non-cancerous Vero cell lines; assay type: cell-based; details: African green monkey, Vero cells (non-cancerous), non-cancerous model, read-out: Cytotoxicity Against Vero Cell Lines (IC50)
Description: (§1) An in-vitro viability test was used to investigate the safety patterns of the tested compounds at different concentrations. The Vero cell lines were used as a non-cancerous model to investigate the safety of the targeted compounds. […] Such values are very high in comparison to the corresponding values on the cancer cell lines, which reflect the high in vitro safety profiles of the tested members towards the examined non-cancerous cell lines (Table 2).

HepG2 = experiment: In vitro anti-proliferative activity (MTT assay), HepG2; details: for Selectivity index (SI) (HepG2): cytotoxicity against Vero cells/cytotoxicity against HepG2
HCT-116 = experiment: In vitro anti-proliferative activity (MTT assay), HCT-116; details: for Selectivity index (SI) (HCT-116): Cytotoxicity against Vero cells/cytotoxicity against HCT-116
human VEGFR-2 = human VEGFR-2 (Homo sapiens, UniProt P35968); experiment: In vitro VEGFR-2 enzyme inhibition assay (Human VEGFR-2 ELISA kit)
HCT-116 cells [2] = experiment: Flow cytometry analysis for cell cycle (PI staining); assay type: cell-based, human; details: HCT-116, 5.4 µM, 24 h
HCT-116 cells [3] = experiment: Flow cytometry analysis for apoptosis (Annexin V and PI double staining); assay type: cell-based, human; details: HCT-116, 5.4 µM, 24 h
TNF-α = TNF-α level in treated HCT-116 cells (qRT-PCR); assay type: cell-based; details: Homo sapiens; HCT-116, 5.4 µM, 24 h; control 82.47
IL-6 = IL-6 level in treated HCT-116 cells (qRT-PCR); assay type: cell-based, human; details: HCT-116, 5.4 µM, 24 h
Bax = Bax expression level in treated HCT-116 cells (qRT-PCR); details: HCT-116, 5.4 µM, 24 h
Bcl-2 = Bcl-2 expression level in treated HCT-116 cells (qRT-PCR); details: HCT-116, 5.4 µM, 24 h
caspase-8 = experiment: Caspase-8 expression level in treated HCT-116 cells (qRT-PCR); details: HCT-116, 5.4 µM, 24 h
Vero cell lines = experiment: In vitro viability test (MTT) on non-cancerous Vero cell lines; assay type: cell-based; details: non-cancerous model, read-out: Cytotoxicity Against Vero Cell Lines (IC50)
Description: as §1

[4] = Homo sapiens, HepG2, read-out: Cytotoxicity IC50 HepG2
[5] = Homo sapiens, HCT-116, read-out: Cytotoxicity IC50 HCT-116

Chain of human VEGFR-2 (P35968 20-1356): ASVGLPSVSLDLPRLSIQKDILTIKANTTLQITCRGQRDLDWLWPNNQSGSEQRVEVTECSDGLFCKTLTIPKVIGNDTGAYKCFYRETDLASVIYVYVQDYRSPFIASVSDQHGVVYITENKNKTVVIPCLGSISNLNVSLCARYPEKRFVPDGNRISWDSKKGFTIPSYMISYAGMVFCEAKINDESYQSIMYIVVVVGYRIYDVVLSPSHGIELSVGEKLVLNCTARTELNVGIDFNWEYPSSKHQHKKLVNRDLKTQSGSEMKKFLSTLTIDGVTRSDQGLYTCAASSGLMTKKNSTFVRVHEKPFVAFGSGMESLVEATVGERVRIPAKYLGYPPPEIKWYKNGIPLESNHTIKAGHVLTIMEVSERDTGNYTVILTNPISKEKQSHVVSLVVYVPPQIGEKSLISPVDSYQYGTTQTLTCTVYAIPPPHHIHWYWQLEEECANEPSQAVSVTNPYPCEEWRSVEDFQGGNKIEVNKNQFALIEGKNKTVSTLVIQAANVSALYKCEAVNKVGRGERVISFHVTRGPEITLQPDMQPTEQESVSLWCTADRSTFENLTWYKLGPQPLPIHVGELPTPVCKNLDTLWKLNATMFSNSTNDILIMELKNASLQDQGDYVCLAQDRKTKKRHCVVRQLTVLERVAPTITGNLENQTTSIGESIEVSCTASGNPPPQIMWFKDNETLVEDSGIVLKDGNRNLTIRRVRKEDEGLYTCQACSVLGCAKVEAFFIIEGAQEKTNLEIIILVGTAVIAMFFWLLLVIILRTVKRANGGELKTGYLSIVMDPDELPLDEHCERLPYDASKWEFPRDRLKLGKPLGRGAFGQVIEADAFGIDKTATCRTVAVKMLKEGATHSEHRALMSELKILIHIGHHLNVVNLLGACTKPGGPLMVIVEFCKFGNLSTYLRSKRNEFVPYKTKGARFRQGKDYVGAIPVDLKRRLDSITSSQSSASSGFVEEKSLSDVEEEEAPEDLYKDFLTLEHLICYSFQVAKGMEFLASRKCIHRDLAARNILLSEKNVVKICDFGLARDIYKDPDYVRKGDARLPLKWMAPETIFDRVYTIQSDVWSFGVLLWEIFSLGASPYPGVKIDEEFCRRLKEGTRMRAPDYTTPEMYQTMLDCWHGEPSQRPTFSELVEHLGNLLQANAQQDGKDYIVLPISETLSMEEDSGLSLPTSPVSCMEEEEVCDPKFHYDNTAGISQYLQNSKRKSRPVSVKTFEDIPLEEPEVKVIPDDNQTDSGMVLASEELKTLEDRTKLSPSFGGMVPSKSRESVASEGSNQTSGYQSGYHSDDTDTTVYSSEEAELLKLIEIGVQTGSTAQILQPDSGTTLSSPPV

Row | Compound | IC50 [1] [µM] | IC50 (HepG2; [4]) [µM] | Selectivity index (SI) (HepG2) (HepG2) | Selectivity index (SI) (HCT-116) (HCT-116) | IC50 (HCT-116; [5]) [µM] | IC50 (human VEGFR-2) [µM] | further results
1 | CC(=NNC(N)=S)c1ccc(NC(=O)c2cccnc2)cc1 [Compound 11, N-(4-(1-(2-Carbamothioylhydrazono)ethyl)phenyl)nicotinamide] | 105 | 20.3 ± 0.064 | 5.19 | 4.20 | 25.07 ± 0.07 | 0.0834 ± 0.00553 | –
2 | CN(C)c1ccc(/C=C/C=N/NC(=O)c2ccc(NC(=O)c3cccnc3)cc2)cc1 [Compound 8, N-(4-(2-((1E,2E)-3-(4-(Dimethylamino)phenyl)allylidene)hydrazine-1-carbonyl)phenyl)nicotinamide] | 85.2 | 7.1 ± 0.03 | 12.01 | 15.79 | 5.4 ± 0.02 | 0.077 ± 0.00425 | Augmentation of G0–G1 phase vs control (HCT-116 cells [2]): 1.42 fold; Decline of cell population at G2/M phase vs control (HCT-116 cells [2]): 2.11 fold; Cell Cycle Distribution %G2-M (HCT-116 cells [2]; control 27.29): 12.91%; Cell Cycle Distribution % S (HCT-116 cells [2]; control 33.75): 31.47%; Cell Cycle Distribution %G0-G1 (HCT-116 cells [2]; control 38.96): 55.62%; Cell Cycle Distribution %Pre-G1 (HCT-116 cells [2]; control printed 19.82): 3.05%; Increase in total apoptosis vs control (HCT-116 cells [3]): 6.5 fold; Necrosis (HCT-116 cells [3]; control 0.62): 1.85%; Apoptosis Early (HCT-116 cells [3]; control 0.7): 3.74%; Apoptosis Late (HCT-116 cells [3]; control 1.73): 14.23%; Apoptosis Total (HCT-116 cells [3]; control 3.05): 19.82%; inhibition at 5.4 µM (TNF-α): 92.4%; Effect on the level of IL-6 (in words) (IL-6): non-significant reduction; inhibition at 5.4 µM (IL-6; Homo sapiens, control 93.15): 94.1%; Increase in Bax level vs control cells (Bax): 9.2 fold; Bax expression level (Bax; control 42.19): 387.26 pg/mL; Decrease in Bcl-2 level vs control cells (Bcl-2): 3 fold; Bcl-2 expression level (Bcl-2; control 5.603): 1.844 pg/mL; Increase in caspase-8 level vs control cells (caspase-8): 9.4 fold; Caspase-8 expression level (caspase-8; control 50.317): 472.3 pg/mL
3 | O=C(N/N=C/c1ccc(Cl)cc1Cl)c1ccc(NC(=O)c2cccnc2)cc1 [Compound 6, (E)-N-(4-(2-(2,4-Dichlorobenzylidene)hydrazine-1-carbonyl)phenyl)-nicotinamide] | 84.7 | 16.5 ± 0.057 | 5.13 | 4.76 | 17.8 ± 0.059 | 0.172 ± 0.0102 | –
4 | (E)-N-(4-(1-(2-(2,6-Dinitrophenyl)hydrazono)ethyl)phenyl)nicotinamide [Compound 12] | – | – | 5.45 | 5.24 | – | – | IC50 (Vero cell lines): 95.4 µM; IC50 (HepG2; read-out: Cytotoxicity IC50 HepG2, MTT, mean ± S.D. of three separate experiments): 17.5 ± 0.058 µM; IC50 (HCT-116; read-out: Cytotoxicity IC50 HCT-116, MTT, mean ± S.D. of three separate experiments): 18.2 ± 0.06 µM; IC50 (human VEGFR-2; read-out: VEGFR-2 IC50, mean ± S.D. of three separate experiments): 0.115 ± 0.00733 µM
5 | CNC(=O)c1cc(Oc2ccc(NC(=O)Nc3ccc(Cl)c(C(F)(F)F)c3)cc2)ccn1 [Sorafenib, sorafenib, reference compound] | – | 7.4 ± 0.235 | – | – | 9.3 ± 0.201 | – | –
6 | COc1ccc(/C=N/NC(=O)c2ccc(NC(=O)c3cccnc3)cc2)cc1OC [Compound 7, (E)-N-(4-(2-(3,4-Dimethoxybenzylidene)hydrazine-1-carbonyl)phenyl)-nicotinamide] | 128 | 18.8 ± 0.061 | 6.80 | 6.66 | 19.2 ± 0.062 | 0.113 ± 0.00723 | –
